From publication PMC10313368 (The Journal of Clinical Investigation, 2023)
Several values for one entry are separate records, joined by “and”; a condition that tells them apart may be missing. Identical values can stand only once.

Columns and labels:
[1] = test system: HIF-regulated angiogenic mediators; experiment: mRNA expression of HIF-regulated vasoactive mediators in OIR mouse retina (qPCR); assay type: in vivo
Experimental: (§1) Reverse transcription and quantitative real-time PCR. Total RNA was isolated from cultured cells or retinas with PureLinkTM RNA Mini Kit (Invitrogen #12183025), and cDNA was prepared with MuLV Reverse Transcriptase (Applied Biosystems). Quantitative real-time PCR was performed with Power SYBR Green PCR Master Mix (Applied Biosystems) and MyiQ Real-Time PCR Detection System (Bio-Rad). Normalization was done using cyclophilin A for mouse tissue and human cell lines. Primers are listed in Supplemental Table 2. […]
Animal studies. Eight-week-old pathogen-free female C57BL/6 mice were obtained from The Jackson Laboratory (JAX). Timed pregnant C57BL/6 mice were obtained from Charles River Laboratories. Mice heterozygous for HIF-1α have been previously described (2). Mice heterozygous for HIF-2α (strain number: 003266; common name: EPAS1 KO) were purchased […]
OIR mouse model. OIR experiments were performed as previously described (1, 3). Briefly, C57BL/6 mice were placed in 75% O2 on P7. On P12, the mice were returned to room air and were […]
(or vehicle) by intravitreal injection. Mice with body weight less than 6 g at P17 were excluded […]
from analysis. Data were collected from both males and females and the results were combined since there was no apparent difference between sexes. Representative images for selected time points from a minimum of three independent experiments are shown. Data from 3-8 pups were obtained at each time point. […]
Intraperitoneal (IP) injections. […]
intraperitoneally using an insulin syringe in OIR pups. […]
the peritoneal cavity of neonatal C57BL/6 mice and STZ mice at indicated times, and the retinal vasculature and lysates for WB and qPCR were assessed at P17.
Intraocular injections. Intravitreal injections were performed with a PLI-100A Pico-liter Microinjector (Warner Instruments, Harvard Bioscience) using pulled-glass micropipettes. Each micropipette was calibrated to deliver a 1 μl volume on depression of a foot switch. The mice were anesthetized with a ketamine (100 mg/kg) and xylazine (5mg/kg) mixture, and under a dissecting microscope, the sharpened tip of the micropipette was passed through the sclera just posterior to the limbus into the vitreous cavity and the foot switch was depressed, which caused fluid to […]

[2] = test system: MIO-M1 cells; experiment: qPCR of VEGF and ANGPTL4 mRNA in hypoxic MIO-M1 cells; assay type: cell-based, human; details: for Angptl4 mRNA / Vegfa mRNA: MIO-M1, 1%O2+32-134D 10μM, 20%O2 about 1, replicates, Figure 7H
Experimental: MIO-M1, HUVECs, and ARPE19 cells were cultured in DMEM with 10% (vol/vol) FBS (Quality Biological) and 1% penicillin/streptomycin (Cellgro). A hypoxic chamber (Coy Laboratory Product Inc.; Two Glove Model) with 5% CO2, 94% N2, and 1% O2 gas concentration at 37°C was used to culture hypoxic cells. The control cells were cultured in an incubator maintained at 37°C, with 21% O2 and 5% CO2. […] Aflibercept was obtained from the Johns Hopkins University Pharmacy. […]
as §1

[3] = biological target: T1, HIF-1α (Mus musculus, UniProt Q61221); experiment: Western blot of HIF-1α protein accumulation in retina of OIR mice (P13); assay type: in vivo
T1 construct: from tissue; host or cells: retina of C57BL/6 OIR pups
T1 sequence (Q61221 whole entry): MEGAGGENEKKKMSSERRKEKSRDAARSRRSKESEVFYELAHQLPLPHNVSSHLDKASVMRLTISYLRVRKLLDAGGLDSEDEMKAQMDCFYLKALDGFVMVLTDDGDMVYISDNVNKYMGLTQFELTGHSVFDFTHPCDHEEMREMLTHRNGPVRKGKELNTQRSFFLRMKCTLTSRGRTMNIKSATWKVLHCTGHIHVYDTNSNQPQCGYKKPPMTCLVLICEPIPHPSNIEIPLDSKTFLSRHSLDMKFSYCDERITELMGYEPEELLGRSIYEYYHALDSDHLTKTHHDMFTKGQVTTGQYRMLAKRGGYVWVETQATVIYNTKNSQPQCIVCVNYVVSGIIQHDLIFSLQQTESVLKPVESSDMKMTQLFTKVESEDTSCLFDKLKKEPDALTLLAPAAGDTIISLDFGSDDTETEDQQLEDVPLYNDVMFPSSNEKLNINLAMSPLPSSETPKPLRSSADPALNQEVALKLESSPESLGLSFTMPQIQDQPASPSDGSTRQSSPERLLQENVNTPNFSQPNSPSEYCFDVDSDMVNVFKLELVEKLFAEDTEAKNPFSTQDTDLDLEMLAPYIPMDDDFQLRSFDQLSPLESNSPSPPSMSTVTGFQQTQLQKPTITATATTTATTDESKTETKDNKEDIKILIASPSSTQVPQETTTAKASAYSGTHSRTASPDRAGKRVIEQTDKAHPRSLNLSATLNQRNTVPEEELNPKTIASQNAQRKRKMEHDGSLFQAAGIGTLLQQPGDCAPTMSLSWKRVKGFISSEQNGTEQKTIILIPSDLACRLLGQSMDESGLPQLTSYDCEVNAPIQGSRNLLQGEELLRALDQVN
Experimental: Immunoblot assays. Cells, neurosensory retina, and D120 retinal organoid lysates were subjected to 4–15% gradient SDS/PAGE (Invitrogen). Immunoblot (Western blot or WB) assays were performed as previously described (1).
Reverse transcription and quantitative real-time PCR. Total RNA was isolated from cultured cells or retinas with PureLinkTM RNA Mini Kit (Invitrogen #12183025), and cDNA was prepared with MuLV Reverse Transcriptase (Applied Biosystems). Quantitative real-time PCR was performed with Power SYBR Green PCR Master Mix (Applied Biosystems) and MyiQ Real-Time PCR Detection System (Bio-Rad). Normalization was done using cyclophilin A for mouse tissue and human cell lines. Primers are listed in Supplemental Table 2.
Angiogenesis array. […]
cDNA was prepared with QuantiTect® Reverse Transcription Kit (Qiagen, Cat# 205311). […]
4444554). […] The data were analyzed by using HPRT1 as endogenous […]
HUVEC cells, Euclidean distance was used to quantify the difference in qPCR screening. The Euclidean distance was calculated using “dist” function from R’s default stat library that measures the distance between 2 vectors (i.e., total qPCR expression values in control and treatment). […]
STZ-induced diabetes mouse model. […] Blood glucose was measured on experimental day 28 after 16 hours fasting and mice with blood glucose level > 250 mg/dL were considered […]

[4] = OIR+32-134D i.p. 20mg/kg, Figure 10C, replicates, 20 mg/kg
[5] = OIR+32-134D i.p. 20mg/kg, Figure 10D, replicates, 20 mg/kg
[6] = S Figure 4B, OIR mice, 14ng I.V., replicates
[7] = S Figure 4B, OIR mice, 70ng I.V., replicates

Question: `Brc1ccc2c(-c3csc(-c4c[nH]c5c(Br)cccc45)n3)c[nH]c2c1` [32-134D, 4-(6-bromo-1H-indol-3-yl)-2-(7-bromo-1H-indol-3-yl)thiazole] was tested. Which “mRNA expression of key HIF-regulated vasoactive mediators in OIR mice (in words)” value ([1]; 5 consecutive (P12–P16) i.p. injections 20 mg/kg 32-134D) did it give?
Answer: marked reduction

Question: And the “Vegfa mRNA” value ([1]; Figure 14B, OIR mice, 14ng I.V., individual replicates)?
Answer: 2.554 and 2.472 and 2.429

Question: What about the “Vegfa mRNA” value ([1]; Figure 14B, OIR mice, 70ng I.V., individual replicates) of the same compound?
Answer: 1.453 and 1.941 and 2.696

Question: And the “other key HIF-regulated angiogenic genes including Kdr, Angptl4, Epo, Serpine1 (in words)” value ([1]; OIR mice P17, single intraocular 32-134D (70 ng, Supplemental Figure 4) at P12)?
Answer: moderate reduction

Question: What about the “Angptl4 mRNA” value [1, 4] of the same compound?
Answer: 1.959 and 1.886 and 1.828

Question: And the “Epo mRNA” value [1, 4]?
Answer: 15.9268 and 13.6786 and 15.0565

Question: And the “Pdgfb mRNA” value [1, 4]?
Answer: 7.756 and 6.2199 and 6.871

Question: And the “Vegfa mRNA” value [1, 4]?
Answer: 4.717 and 4.578 and 4.299

Question: What about the “Angpt2 mRNA” value [1, 5] of the same compound?
Answer: 1.455 and 1.394 and 1.541

Question: What about the “Kdr mRNA” value [1, 5] of the same compound?
Answer: 1.28 and 1.296 and 1.315

Question: What about the “Ptprb mRNA” value [1, 5] of the same compound?
Answer: 1.109 and 1.093 and 1.12

Question: What about the “Serpine1 mRNA” value [1, 5] of the same compound?
Answer: 18.6807 and 17.1616 and 18.3924

Question: And the “Angptl4 mRNA” value [1, 6]?
Answer: 1.665 and 1.591 and 1.559

Question: And the “Epo mRNA” value [1, 6]?
Answer: 8.623 and 9.0589 and 6.546

Question: And the “Kdr mRNA” value [1, 6]?
Answer: 1.18 and 1.183 and 1.04

Question: And the “Serpine1 mRNA” value [1, 6]?
Answer: 4.654 and 4.995 and 4.51

Question: What about the “Angptl4 mRNA” value [1, 7] of the same compound?
Answer: 1.678 and 1.5898 and 1.693

Question: What about the “Epo mRNA” value [1, 7] of the same compound?
Answer: 5.752 and 6.783 and 6.508

Question: What about the “Kdr mRNA” value [1, 7] of the same compound?
Answer: 1.345 and 1.2643 and 1.301

Question: What about the “Serpine1 mRNA” value [1, 7] of the same compound?
Answer: 6.417 and 6.411 and 5.108

Question: What about the “Vegfa mRNA expression in OIR mice (in words)” value ([1]; single intraocular injection 32-134D 14 ng at P12) of the same compound?
Answer: moderate reduction

Question: And the logIC50 ([2]; Figure 12B, [Inhibitor] vs. response (three parameters), best-fit value)?
Answer: 0.5455

Question: And the “Angptl4 mRNA” value ([2]; 2hrs)?
Answer: 0.3563 and 0.4262 and 0.3782

Question: And the “Vegfa mRNA” value ([2]; 2hrs)?
Answer: 1.026 and 1.073 and 1.079

Question: And the “Angptl4 mRNA” value ([2]; 4hrs)?
Answer: 1.791 and 1.687 and 2.018

Question: What about the “Vegfa mRNA” value ([2]; 4hrs) of the same compound?
Answer: 1.517 and 1.493 and 1.343

Question: And the “Angptl4 mRNA” value ([2]; 8hrs)?
Answer: 1.385 and 1.132 and 0.993

Question: What about the “Vegfa mRNA” value ([2]; 8hrs) of the same compound?
Answer: 2.421 and 2.295 and 2.311

Question: What about the “HIF-1α protein accumulation in OIR mice” value ([3]; single i.p. injection 20 mg/kg, P13) of the same compound?
Answer: reduction

Question: What about the “accumulation of HIF-1α in OIR mice” value ([3]; single intraocular injection 14 ng at P12, P13) of the same compound?
Answer: effectively reduced
